Reference: US11492359B2, “Near-infrared nerve-sparing fluorophores” (OREGON HEALTH & SCIENCE UNIVERSITY, priority 2018, dated 2022)

Experiment: UV-Vis absorption and fluorescence spectroscopy of the Oxazine library
Format: physicochemical
Conditions: for Extinction coefficient: Beer's Law plots; for Quantum yield: relative, references Oxazine 1, Oxazine 170, Rhodamine 101
Description: All reagents were purchased from Sigma Aldrich, Fisher Scientific, TCI, or Ark Pharm. Unless otherwise indicated, all commercially available starting materials were used directly without further purification. Analytical thin layer chromatography (TLC) was performed on Millipore ready-to-use plates with silica gel 60 (F254, 32-63 μm). Flash chromatography was performed on Sorbent Technologies silica gel for column chromatography or on a Biotage Isolera Flash System using SNAP Ultra cartridges. High-resolution mass spectra (HRMS) were measured on a ThermoElectron LTQ-Orbitrap high resolution mass spectrometer with a dedicated Accela HPLC system, or an Agilent 6244 time-of-flight LCMS with diode array detector VL+. LCMS and Purity Characterization Mass-to-charge ratio and purity of the Oxazine compounds were characterized on an Agilent 6244 time-of-flight tandem liquid chromatography mass spectroscopy (LCMS) with diode array detector VL+. Sample (10 μL) was injected into a C18 column (Poroshell 120, 4.6×50 mm, 2.7 micron), and eluted with a solvent system of A (H2O, 0.1% FA) and B (MeCN, 01.% FA) at 0.4 mL/min, from A/B=90/10 to 5/95 over 10 min, maintained at A/B=5/95 for additional 5 min. Ions were detected in positive ion mode by setting the capillary voltage at 4 kV and gas temperature at 350° C. Purity was calculated through area under the curve analysis of the absorbance at 254 nm. UV-Vis Absorption and Fluorescence Spectroscopy. UV-Vis spectra were collected with a Cary 50 UV-Vis spectrophotometer at room temperature, using a 1-cm quartz cuvette. Fluorescence spectra were collected on a Cary Eclipse fluorescence spectrophotometer (Agilent Technologies). All absorbance spectra were reference corrected. Extinction coefficient was calculated from Beer's Law plots of absorbance versus concentration. Fluorescence spectra were corrected for the wavelength dependent response of the R928 photomultiplier tube using a manufacturer generated correction file. Relative quantum yields are reported as the average of multiple measurements using multiple references, including Oxazine 1, Oxazine 170, and Rhodamine 101. Physicochemical Property Calculation. Physicochemical partition coefficients (Log D) values at pH 7.4, number of hydrogen bond donors and acceptors, polar surface area, and the number of rotatable bonds were calculated using Marvin and JChem calculator plugins (ChemAxon, Budapest, Hungary). Nerve-Specificity Screening using Direct/Topical Administration Each compound was screened for its tissue-specificity using a previously published direct/topical administration strategy in murine brachial plexus and sciatic nerves.^1 Each compound from the Oxazine library was formulated in the previously utilized co-solvent formulation (10% DMSO, 5% Kolliphor, 65% serum and 20% phosphate buffered saline) at 125 μM. 100 μL of the formulated Oxazine were incubated on the exposed brachial plexus or sciatic nerve for 5 minutes. The fluorophore containing solution was removed and the area was irrigated with saline 18 times to remove any unbound fluorophore. Co-registered fluorescence and color images were collected of each stained area 30 minutes after Oxazine direct/topical administration using a custom built macroscopic imaging system with 620/60 nm excitation and 700/75 nm bandpass emission filters. Custom written MatLab code was used to analyze the tissue specific fluorescence where regions of interest were selected on the nerve, muscle and adipose tissue using the white light images. These regions of interest were then analyzed on the co-registered matched fluorescence images permitting assessment of the nerve to muscle and nerve to adipose ratios in blinded manner. […]

CC/N=c1/cc2oc3cc(NCC)ccc3nc-2cc1C [LGW01-18, (Z)—N-(7-(ethylamino)-2-methyl-3H-phenoxazin-3-ylidene)ethanaminium]
Max Abs: 617 nm
Max Em: 636 nm
Max Ex: 620 nm
Extinction coefficient: 60731 M⁻¹ cm⁻¹
Quantum yield: 32.91%

CCNc1ccc2nc3ccc(=[N+](CC)CC)cc-3oc2c1 [LGW01-25, N-ethyl-N-(7-(ethylamino)-3H-phenoxazin-3-ylidene)ethanaminium]
Max Abs: 635 nm
Max Em: 660 nm
Max Ex: 640 nm
Extinction coefficient: 41771 M⁻¹ cm⁻¹
Quantum yield: 3.31%

C/N=c1/cc2oc3cc(NC)c(C)cc3nc-2cc1C [LGW01-61, (Z)—N-(2,8-dimethyl-7-(methylamino)-3H-phenoxazin-3-ylidene)methanaminium]
Max Abs: 612 nm
Max Em: 631 nm
Max Ex: 610 nm
Extinction coefficient: 21783 M⁻¹ cm⁻¹
Quantum yield: 40.27%

CC/N=c1\ccc2nc3ccc(NCC)c(C)c3oc-2c1C [LGW02-57, (E)-N-(7-(ethylamino)-4,6-dimethyl-3H-phenoxazin-3-ylidene)ethanaminium]
Max Abs: 635 nm
Max Em: 653 nm
Max Ex: 635 nm
Extinction coefficient: 56713 M⁻¹ cm⁻¹
Quantum yield: 11.15%

CC/N=c1/cc2oc3c(C)c(NCC)ccc3nc-2cc1C [LGW02-58, (Z)—N-(7-(ethylamino)-2,6-dimethyl-3H-phenoxazin-3-ylidene)ethanaminium]
Max Abs: 620 nm
Max Em: 635 nm
Max Ex: 620 nm
Extinction coefficient: 42685 M⁻¹ cm⁻¹
Quantum yield: 25.26%

CC/N=c1/cc2oc3cc(NCC)cc(C)c3nc-2cc1C [LGW02-59, (Z)—N-(7-(ethylamino)-2,9-dimethyl-3H-phenoxazin-3-ylidene)ethanaminium]
Max Abs: 611 nm
Max Em: 636 nm
Max Ex: 615 nm
Extinction coefficient: 41229 M⁻¹ cm⁻¹
Quantum yield: 31.74%

CCNc1ccc2nc3ccc(=[N+](CC)CC)cc-3oc2c1C [LGW02-60, N-ethyl-N-(7-(ethylamino)-6-methyl-3H-phenoxazin-3-ylidene)ethanaminium]
Max Abs: 645 nm
Max Em: 661 nm
Max Ex: 650 nm
Extinction coefficient: 65369 M⁻¹ cm⁻¹
Quantum yield: 8.98%

CCNc1cc(C)c2nc3ccc(=[N+](CC)CC)cc-3oc2c1 [LGW02-61, N-ethyl-N-(7-(ethylamino)-9-methyl-3H-phenoxazin-3-ylidene)ethanaminium]
Max Abs: 630 nm
Max Em: 658 nm
Max Ex: 635 nm
Extinction coefficient: 68548 M⁻¹ cm⁻¹
Quantum yield: 6.12%

CC[N+](CC)=c1ccc2nc3cc4c5c(c3oc-2c1)CCCN5CCC4 [LGW02-86, N-ethyl-N-(2,3,6,7-tetrahydro-1H,5H,12H-quinolizino[1,9-bc]phenoxazin-12-ylidene)ethanaminium]
Max Abs: 661 nm
Max Em: 680 nm
Max Ex: 665 nm
Extinction coefficient: 39472 M⁻¹ cm⁻¹
Quantum yield: 13.18%

c1c2c3c(c4c1N=c1cc5c6c(c1O4)CCC[N+]=6CCC5)CCCN3CCC2 [LGW02-87, 2,3,6,7,12,13,16,17-octahydro-1H,5H,11H,15H-diquinolizino[1,9-bc:1′,9′-hi]phenoxazin-4-ium]
Max Abs: 678 nm
Max Em: 690 nm
Max Ex: 680 nm
Extinction coefficient: 59937 M⁻¹ cm⁻¹
Quantum yield: 15.03%

CC/N=c1/cc2oc3cc4c(cc3nc-2cc1C)CCCN4CC [LGW02-91, (Z)—N-(1-ethyl-8-methyl-1,2,3,4-tetrahydro-9H-pyrido[3,2-b]phenoxazin-9-ylidene)ethanaminium]
Max Abs: 640 nm
Max Em: 657 nm
Max Ex: 645 nm
Extinction coefficient: 59971 M⁻¹ cm⁻¹
Quantum yield: 23.58%

CCN1CCCc2cc3nc4ccc(=[N+](CC)CC)cc-4oc3cc21 [LGW02-92, N-ethyl-N-(1-ethyl-1,2,3,4-tetrahydro-9H-pyrido[3,2-b]phenoxazin-9-ylidene)ethanaminium]
Max Abs: 656 nm
Max Em: 673 nm
Max Ex: 660 nm
Extinction coefficient: 43659 M⁻¹ cm⁻¹
Quantum yield: 9.27%

CCN1CCCc2cc3c(cc21)Oc1cc2c(cc1=N3)CCC[N+]=2CC [LGW02-99, 1,11-diethyl-3,4,8,9,10,11-hexahydro-2H-dipyrido[3,2-b:2′,3′-i]phenoxazin-1-ium]
Max Abs: 640 nm
Max Em: 675 nm
Max Ex: 665 nm
Extinction coefficient: 59971 M⁻¹ cm⁻¹
Quantum yield: 24.67%

CC/N=c1/cc2oc3cc(N4CCCC4)ccc3nc-2cc1C [LGW03-06, (Z)—N-(2-methyl-7-(pyrrolidin-1-yl)-3H-phenoxazin-3-ylidene)ethanaminium]
Max Abs: 640 nm
Max Em: 661 nm
Max Ex: 640 nm
Extinction coefficient: 35942 M⁻¹ cm⁻¹
Quantum yield: 11.94%

CC/N=c1/cc2oc3cc4c(cc3nc-2cc1C)CCCN4 [LGW03-12, (Z)—N-(8-methyl-1,2,3,4-tetrahydro-9H-pyrido[3,2-b]phenoxazin-9-ylidene)ethanaminium]
Max Abs: 624 nm
Max Em: 638 nm
Max Ex: 630 nm
Extinction coefficient: 40041 M⁻¹ cm⁻¹
Quantum yield: 27.22%

CC[N+](CC)=c1ccc2nc3cc4c(cc3oc-2c1)NCCC4 [LGW03-13, N-ethyl-N-(1,2,3,4-tetrahydro-9H-pyrido[3,2-b]phenoxazin-9-ylidene)ethanaminium]
Max Abs: 641 nm
Max Em: 659 nm
Max Ex: 645 nm
Extinction coefficient: 64045 M⁻¹ cm⁻¹
Quantum yield: 6.49%

CC[N+](CC)=c1ccc2nc3ccc(N4CCCCC4)cc3oc-2c1 [LGW03-18, N-ethyl-N-(7-(piperidin-1-yl)-3H-phenoxazin-3-ylidene)ethanaminium]
Max Abs: 661 nm
Max Em: 680 nm
Max Ex: 665 nm
Extinction coefficient: 66206 M⁻¹ cm⁻¹
Quantum yield: 3.49%

CC/N=c1/cc2oc3cc(N4CCCCC4)ccc3nc-2cc1C [LGW03-21, (Z)—N-(2-methyl-7-(piperidin-1-yl)-3H-phenoxazin-3-ylidene)ethanaminium]
Max Abs: 642 nm
Max Em: 661 nm
Max Ex: 640 nm
Extinction coefficient: 36049 M⁻¹ cm⁻¹
Quantum yield: 2.25%

c1cc2nc3ccc(=[N+]4CCCC4)cc-3oc2cc1N1CCCC1 [LGW03-31, 1-(7-(pyrrolidin-1-yl)-3H-phenoxazin-3-ylidene)pyrrolidin-1-ium]
Max Abs: 655 nm
Max Em: 674 nm
Max Ex: 655 nm
Extinction coefficient: 48226 M⁻¹ cm⁻¹
Quantum yield: 15.78%

c1c2c(cc3c1N=c1cc4c(cc1O3)=NCCC4)NCCC2 [LGW03-32, 3,4,8,9,10,11-hexahydro-2H-dipyrido[3,2-b:2′,3′-i]phenoxazin-1-ium]
Max Abs: 631 nm
Max Em: 644 nm
Max Ex: 630 nm
Extinction coefficient: 45650 M⁻¹ cm⁻¹
Quantum yield: 29.92%

CC/N=c1/cc2oc3cc4c(cc3nc-2cc1C)OCCN4 [LGW03-41, (Z)—N-(9-methyl-3,4-dihydro-[1,4]oxazino[2,3-b]phenoxazin-8(2H)-ylidene)ethanaminium]
Max Abs: 607 nm
Max Em: 641 nm
Max Ex: 625 nm
Extinction coefficient: 19729 M⁻¹ cm⁻¹
Quantum yield: 25.80%

CCN1c2cc3oc4cc(=[N+](CC)CC)ccc-4nc3cc2C(C)=CC1(C)C [LGW03-52, N-ethyl-N-(1-ethyl-2,2,4-trimethyl-1,2-dihydro-9H-pyrido[3,2-b]phenoxazin-9-ylidene)ethanaminium]
Max Abs: 678 nm
Max Em: 699 nm
Max Ex: 680 nm
Extinction coefficient: 38039 M⁻¹ cm⁻¹
Quantum yield: 6.82%
